Patent US20250288683A1, “TETRAHYDROISOQUINOLINE HETEROBIFUNCTIONAL BCL-XL DEGRADERS” (Treeline Biosciences, Inc., priority 2022, published 2025)

Biological target: T1, Human BCL-XL protein (N-terminal HiBiT tagged BCL-XL in HT1080 cells) (Homo sapiens, UniProt Q07817)
T1 construct: expressed in transfected cells; host or cells: HT-1080 (ATCC CCL-121), stably transduced with lentivirus pLV-UBC-N-HiBiT-BCL-XL-PGK-puro and selected with puromycin
Experiment: HiBiT based degradation assay
Format: cell-based
Conditions: HT1080 cells expressing N-terminal HiBiT tagged BCL-XL, normalized with DMSO control
Text: HiBiT Based Degradation Assay
Human BCL-XL protein coding open reading frame fused with N-terminal HiBiT coding sequence was synthesized from Integrated DNA Technologies (IDT). Next, N-HiBiT-BCL-XL sequence was cloned into pLV-UBC-PGK-Puro, a lentivirus plasmid purchased from Vectorbuilder, to generate pLV-UBC-N-HiBiT-BCL-XL-PGK-puro. Lentiviral particles were generated from Lenti-X™ 293T cells (Clontech) by co-transfection of pLV-UBC-N-HiBiT-BCL-XL-PGK-puro plasmids and lentiviral packaging plasmid mix (Cellecta). HT-1080 [HT1080](ATCC CCL-121) cells were infected with the lentivirus, and HT1080 cells stably integrated with the lentiviral vectors were established by incubation with 1 μg/mL puromycin (Thermofisher).
HT1080 cells expressing N-terminal HiBiT tagged BCL-XL were dispensed into a 384-well plate pre-spotted with compounds at varying concentrations. Three thousand cells were seeded into each well in 40 μL of RPMI 1640 media. […] After incubation, luminescence was read on a PHERAstar FSX Plate Reader (BMG). BCL-XL degradation at each indicated concentration was normalized with the DMSO control. The BCL-XL degradation curves were plotted using a four-parameter logistic model. For compounds displaying hook effects, the curve fitting was performed using the bottom point of the hook curves (i.e., the point of Ymin) as the bottom plateau to calculate EC50.

T1 sequence (Q07817 whole entry): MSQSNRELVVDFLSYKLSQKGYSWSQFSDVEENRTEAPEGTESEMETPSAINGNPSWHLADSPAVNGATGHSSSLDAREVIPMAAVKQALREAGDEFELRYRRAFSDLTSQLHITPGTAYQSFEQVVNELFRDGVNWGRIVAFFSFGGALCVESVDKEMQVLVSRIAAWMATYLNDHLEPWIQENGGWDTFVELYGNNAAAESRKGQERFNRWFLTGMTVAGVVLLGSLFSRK

| SMILES | Ymin (6 h) | Ymin (24 h) |
| --- | --- | --- |
| Cc1ncsc1-c1ccc([C@H](C)NC(=O)[C@@H]2C[C@@H](O)CN2C(=O)[C@@H](NC(=O)CCCCCCCCCCCCCCCn2nc(C)c(-c3ccc(N4CCc5cccc(C(=O)Nc6nc7ccccc7s6)c5C4)nc3C(=O)O)c2C)C(C)(C)C)cc1 [Compound 102a, 6-[8-(1,3-Benzothiazol-2-ylcarbamoyl)-3,4-dihydro-1H-isoquinolin-2-yl]-3-[1-[16-[[(1S)-1-[(2S,4R)-4-hydroxy-2-[[(1S)-1-[4-(4-methylthiazol-5-yl)phenyl]ethyl]carbamoyl]pyrrolidine-1-carbonyl]-2,2-dimethyl-propyl]amino]-16-oxo-hexadecyl]-3,5-dimethyl-pyrazol-4-yl]pyridine-2-carboxylic acid] | A (Ymin < 50%) | – |
| Cc1ncsc1-c1ccc([C@H](C)NC(=O)[C@@H]2C[C@@H](O)CN2C(=O)[C@@H](NC(=O)C(F)(F)C[C@H]2CC[C@H](Oc3cccc(-c4ccc(N5CCc6cccc(C(=O)Nc7nc8ccccc8s7)c6C5)nc4C(=O)O)c3C)CC2)C(C)(C)C)cc1 [Compound 117a, 6-(8-(benzo[d]thiazol-2-ylcarbamoyl)-3,4-dihydroisoquinolin-2 (1H)-yl)-3-(3-(((1S,4r)-4-(2,2-difluoro-3-(((S)-1-((2S,4R)-4-hydroxy-2-(((S)-1-(4-(4-methylthiazol-5-yl)phenyl)ethyl)carbamoyl)pyrrolidin-1-yl)-3,3-dimethyl-1-oxobutan-2-yl)amino)-3-oxopropyl)cyclohexyl)oxy)-2-methylphenyl)picolinic acid] | – | B (50% ≤ Ymin < 70%) |
| Cc1ncsc1-c1ccc(CNC(=O)[C@@H]2C[C@@H](O)CN2C(=O)[C@@H](NC(=O)C2(F)CC2)C(C)(C)SCCCCCCCCCOc2cccc(-c3ccc(N4CCc5cccc(C(=O)Nc6nc7ccccc7s6)c5C4)nc3C(=O)O)c2C)cc1 [Compound 141a] | – | A (Ymin < 50%) |
| Cc1ncsc1-c1ccc(CNC(=O)[C@@H]2C[C@@H](O)CN2C(=O)[C@@H](NC(=O)C2(F)CC2)C(C)(C)SCCCCCCCCCCOc2cccc(-c3ccc(N4CCc5cccc(C(=O)Nc6nc7ccccc7s6)c5C4)nc3C(=O)O)c2C)cc1 [Compound 137a, 6-(8-(benzo[d]thiazol-2-ylcarbamoyl)-3,4-dihydroisoquinolin-2 (1H)-yl)-3-(3-((10-(((R)-3-(1-fluorocyclopropane-1-carboxamido)-4-((2S,4R)-4-hydroxy-2-((4-(4-methylthiazol-5-yl)benzyl)carbamoyl)pyrrolidin-1-yl)-2-methyl-4-oxobutan-2-yl)thio)decyl)oxy)-2-methylphenyl)picolinic acid] | – | B (50% ≤ Ymin < 70%) |
| Cc1ncsc1-c1ccc([C@H](C)NC(=O)[C@@H]2C[C@@H](O)CN2C(=O)[C@@H](NC(=O)C(C)(C)[C@H]2CC[C@@H](Oc3cccc(-c4ccc(N5CCc6cccc(C(=O)Nc7nc8ccccc8s7)c6C5)nc4C(=O)O)c3C)CC2)C(C)(C)C)cc1 (single isomer, unassigned) [Compound 138a] | – | A (Ymin < 50%) |
| Cc1ncsc1-c1ccc([C@@H](NC(=O)[C@@H]2C[C@@H](O)CN2C(=O)[C@@H](NC(=O)C[C@H]2CC[C@H](Oc3cccc(-c4ccc(N5CCc6cccc(C(=O)Nc7nc8ccccc8s7)c6C5)nc4C(=O)O)c3C)CC2)C(C)(C)C)C(F)(F)F)cc1 [Compound 125a, 6-(8-(benzo[d]thiazol-2-ylcarbamoyl)-3,4-dihydroisoquinolin-2 (1H)-yl)-3-(3-(((1S,4r)-4-(2-(((S)-1-((2S,4R)-4-hydroxy-2-(((R)-2,2,2-trifluoro-1-(4-(4-methylthiazol-5-yl)phenyl)ethyl)carbamoyl)pyrrolidin-1-yl)-3,3-dimethyl-1-oxobutan-2-yl)amino)-2-oxoethyl)cyclohexyl)oxy)-2-methylphenyl)picolinic acid] | – | A (Ymin < 50%) |

Continued, values first:

| Ymin (6 h) | Ymin (24 h) | SMILES |
| --- | --- | --- |
| A (Ymin < 50%) | A (Ymin < 50%) | Cc1ncsc1-c1ccc([C@H](C)NC(=O)[C@@H]2C[C@@H](O)CN2C(=O)[C@@H](NC(=O)Cc2ccc(Oc3cccc(-c4ccc(N5CCc6cccc(C(=O)Nc7nc8ccccc8s7)c6C5)nc4C(=O)O)c3C)cc2)C(C)(C)C)cc1 [Compound 113a, 6-[8-(1,3-benzothiazol-2-ylcarbamoyl)-3,4-dihydro-1H-isoquinolin-2-yl]-3-[3-[4-[2-[[(1S)-1-[(2S,4R)-4-hydroxy-2-[[(1S)-1-[4-(4-methylthiazol-5-yl)phenyl]ethyl]carbamoyl]pyrrolidine-1-carbonyl]-2,2-dimethyl-propyl]amino]-2-oxo-ethyl]phenoxy]-2-methyl-phenyl]pyridine-2-carboxylic acid] |
| A (Ymin < 50%) | A (Ymin < 50%) | Cc1ncsc1-c1ccc([C@H](C)NC(=O)[C@@H]2C[C@@H](O)CN2C(=O)[C@@H](NC(=O)CCCc2ccc(Oc3cccc(-c4ccc(N5CCc6cccc(C(=O)Nc7nc8ccccc8s7)c6C5)nc4C(=O)O)c3C)cc2)C(C)(C)C)cc1 [Compound 115a, 6-(8-(benzo[d]thiazol-2-ylcarbamoyl)-3,4-dihydroisoquinolin-2 (1H)-yl)-3-(3-(4-(4-(((S)-1-((2S,4R)-4-hydroxy-2-(((S)-1-(4-(4-methylthiazol-5-yl)phenyl)ethyl)carbamoyl)pyrrolidin-1-yl)-3,3-dimethyl-1-oxobutan-2-yl)amino)-4-oxobutyl)phenoxy)-2-methylphenyl)picolinic acid] |
| – | A (Ymin < 50%) | Cc1ncsc1-c1ccc([C@H](C)NC(=O)[C@@H]2C[C@@H](O)CN2C(=O)[C@@H](NC(=O)CC[C@H](C)c2ccc(Oc3cccc(-c4ccc(N5CCc6cccc(C(=O)Nc7nc8ccccc8s7)c6C5)nc4C(=O)O)c3C)cc2)C(C)(C)C)cc1 (single isomer, unassigned) [Compound 129a] |
| A (Ymin < 50%) | A (Ymin < 50%) | Cc1ncsc1-c1ccc([C@H](C)NC(=O)[C@@H]2C[C@@H](O)CN2C(=O)[C@@H](NC(=O)CCCCCCOc2cccc(-c3ccc(N4CCc5cccc(C(=O)Nc6nc7ccccc7s6)c5C4)nc3C(=O)O)c2C)C(C)(C)C)cc1 [Compound 106a, 6-(8-(benzo[d]thiazol-2-ylcarbamoyl)-3,4-dihydroisoquinolin-2(1H)-yl)-3-(3-((7-(((S)-1-((2S,4R)-4-hydroxy-2-(((S)-1-(4-(4-methylthiazol-5-yl)phenyl)ethyl)carbamoyl)pyrrolidin-1-yl)-3,3-dimethyl-1-oxobutan-2-yl)amino)-7-oxoheptyl)oxy)-2-methylphenyl)picolinic acid] |
| – | A (Ymin < 50%) | Cc1ncsc1-c1ccc([C@H](C)NC(=O)[C@@H]2C[C@@H](O)CN2C(=O)[C@@H](NC(=O)CC[C@@H](C)c2ccc(Oc3cccc(-c4ccc(N5CCc6cccc(C(=O)Nc7nc8ccccc8s7)c6C5)nc4C(=O)O)c3C)cc2)C(C)(C)C)cc1 (single isomer, unassigned) [Compound 129b] |
| – | A (Ymin < 50%) | Cc1ncsc1-c1ccc([C@H](C)NC(=O)[C@@H]2C[C@@H](O)CN2C(=O)[C@@H](NC(=O)C(F)(F)[C@H]2CC[C@H](Oc3cccc(-c4ccc(N5CCc6cccc(C(=O)Nc7nc8ccccc8s7)c6C5)nc4C(=O)O)c3C)CC2)C(C)(C)C)cc1 [Compound 144a] |
| – | B (50% ≤ Ymin < 70%) | Cc1ncsc1-c1ccc([C@H](C)NC(=O)[C@@H]2C[C@@H](O)CN2C(=O)[C@@H](NC(=O)CN2CCC(Oc3cccc(-c4ccc(N5CCc6cccc(C(=O)Nc7nc8ccccc8s7)c6C5)nc4C(=O)O)c3C)CC2)C(C)(C)C)cc1 [Compound 122a, 6-[8-(1,3-benzothiazol-2-ylcarbamoyl)-3,4-dihydro-1H-isoquinolin-2-yl]-3-[3-[[1-[2-[[(1S)-1-[(2S,4R)-4-hydroxy-2-[[(1S)-1-[4-(4-methylthiazol-5-yl)phenyl]ethyl]carbamoyl]pyrrolidine-1-carbonyl]-2,2-dimethyl-propyl]amino]-2-oxo-ethyl]-4-piperidyl]oxy]-2-methyl-phenyl]pyridine-2-carboxylic acid] |
| B (50% ≤ Ymin < 70%) | A (Ymin < 50%) | Cc1ncsc1-c1ccc([C@H](C)NC(=O)[C@@H]2C[C@@H](O)CN2C(=O)[C@@H](NC(=O)CCc2ccc(COc3cccc(-c4ccc(N5CCc6cccc(C(=O)Nc7nc8ccccc8s7)c6C5)nc4C(=O)O)c3C)cc2)C(C)(C)C)cc1 [Compound 114a, 6-(8-(benzo[d]thiazol-2-ylcarbamoyl)-3,4-dihydroisoquinolin-2(1H)-yl)-3-(3-((4-(3-(((S)-1-((2S,4R)-4-hydroxy-2-(((S)-1-(4-(4-methylthiazol-5-yl)phenyl)ethyl)carbamoyl)pyrrolidin-1-yl)-3,3-dimethyl-1-oxobutan-2-yl)amino)-3-oxopropyl)benzyl)oxy)-2-methylphenyl)picolinic acid] |
